A short description of data set [1]: Molar enthalpy of transition or fusion. Particulars: Crystal; DSC.
For data set [2] the following is noted: Crystal; DTA.

Numbers after ± are expanded uncertainties.

For `O=C(O)CCCC(=O)O` [1,5-pentanedioic acid], in data set [1], the “Molar enthalpy of transition or fusion” value was determined as 5.07 ± 0.287 kcal/mol. Besides, in data set [2], the Normal melting temperature amounted to 99.10 ± 0.99 °C.
`O=C(O)CCCCC(=O)O` [1,6-hexanedioic acid]: in data set [1], the “Molar enthalpy of transition or fusion” value is 8.4 ± 0.454 kcal/mol. For the same molecule, the Normal melting temperature in data set [2] was 152.00 ± 0.99 °C.
`O=C(O)CCC(=O)O` [butanedioic acid]: in data set [1], the “Molar enthalpy of transition or fusion” value amounted to 7.82 ± 0.43 kcal/mol. Moreover, the Normal melting temperature in data set [2] was determined as 185.50 ± 0.99 °C.

Source of the values: the NIST ThermoML archive (doi:10.1021/je500682v).
